Measured values reported in patent US5688773A, “Method of selectively destroying neoplastic cells” (priority 1994, dated 1997).

How the values were obtained:
[1] = test system: C6 cells; assay: Cell proliferation assay; assay type: cell-based, rat; conditions: 0.5 mM, four days
Description: Cell proliferation assays: For cell proliferation assays, cells (2×10^5 per dish, unless otherwise noted) were plated onto 10 cm dishes. […] Incubations were continued for four days and cell numbers were assayed using a Coulter counter (Coulter Electronics Inc.), after harvesting in trypsinEDTA.

[2] = test system: C6 cells; assay: Trypsinization and replating assay; assay type: cell-based, rat; conditions: Table V panel B; survivors of panel A replated, nine days
Description: Trypsinization and replating assay: To determine the temporal kinetics of CPA-mediated cytotoxicity, 2×10^6 cells were plated onto each 10 cm dish. Twenty-four hours later, 0.5 mM CPA was added and cells were incubated for the times indicated in each figure. Cells were then trypsinized and replated at a density of 2×10^5 cells/10 cm dish. Nine days later, cell numbers were evaluated by Coulter counting.

[3] = test system: C6 cells exposed to CM from C6; assay: C6 colony formation after conditioned medium from drug-exposed cells; assay type: cell-based, rat; conditions: Table V panel C; CM from treated C6 cultures
[4] = test system: mixed culture of 9L and 9L-ZP cells; assay: Cytotoxicity toward mixed cultures; assay type: cell-based, rat; conditions: 10 μM metyrapone
Description: FIG. 28 is a bar graph depicting the cytotoxicity of oxazaphosphorines toward mixed cultures of 9L and 9L-ZP cells. Equal numbers of parental 9L cells were mixed with 9L-ZP cells (total initial cell number=1×10^5 /30 mm tissue culture dish). […] Cell numbers were determined 5 days after beginning drug treatment. Data (mean ±range of duplicates) are expressed as growth ratio (%) relative to drug-free controls.
(§1) To test for drug sensitivity, 1×10^5 cells were plated in 30-mm tissue culture plates (Falcon 3046) in duplicate. Drugs were added 18-24 hours after seeding. Cells were allowed to grow for times ranging up to 5 days after drug treatment, and the final cell number was then determined. Cells were rinsed with phosphate buffered saline or Hank's buffered saline, dispersed using trypsin-EDTA (GIBCO/BRL, Inc.), and then counted with a hemocytometer. Results are expressed as a growth ratio, i.e., the number of cells in plates containing drug as a percentage of the corresponding drug-free controls (mean±range of duplicate determinations).

[5] = test system: parental 9L cells co-cultured with 9L-ZP cells; assay: Co-culture experiments with culture inserts; assay type: cell-based, rat; conditions: 10 μM metyrapone
Description: Co-culture Experiments: Parental 9L cells were plated in the bottom wells of culture plates (Falcon 3502), and cytochrome P450 2B1-negative or cytochrome P450 2B1-positive cells were plated into 25 mm cell culture inserts (0.45 μm pore size, Falcon 3090). Culture media were removed 18-24 hours later by aspiration. Culture medium without drug (1.0 mL) was added to the bottom well, and 1.0 mL medium containing drug was added to the upper cell culture insert. Cell numbers were determined 5 days later, as described above.

[6] = test system: 9L-ZP cells; assay: Drug sensitivity of cultured 9L cells with or without metyrapone; conditions: 10 μM metyrapone
[7] = test system: cytochrome P450 2B1-negative cells (parental 9L and 9L-Z); assay: Drug sensitivity of cultured 9L cells; assay type: cell-based, rat; conditions: 5 days
Description: as §1

[8] = test system: cytochrome P450 2B1-positive cells (9L-ZP and L450-2); conditions: 5 days

## CCN(CC)P1(=O)NCCCO1 (centres unmarked) [DCPA, didechlorocyclophosphamide]
[1]
  Effect on cell proliferation: had no effect
[1]; Table V panel A
  Cell proliferation assay, number of cells: 21.51±0.43 ×10^6
[2]
  Trypsinization and replating assay, cell count: 20.58±0.33
[3]
  Secretion effect, C6 colony number: 301±4.6

## CC(C)(C(=O)c1cccnc1)c1cccnc1 [metyrapone]
[4]
  Effect on cyclophosphamide killing of mixed culture: largely abrogate
[5]
  Effect on cyclophosphamide killing of both cell populations: effectively blocked
[6]; 10 μM 4-hydroperoxy cyclophosphamide
  Effect on cytotoxic effect of 4-hydroperoxy cyclophosphamide: did not block
[6]; 1 mM cyclophosphamide
  Effect on cytotoxic effects of cyclophosphamide: nearly eliminated
[6]; 2 mM ifosphamide
  Effect on cytotoxic effects of ifosphamide: nearly eliminated

## O=P1(N(CCCl)CCCl)NC(OO)CCO1 (centres unmarked) [4-hydroperoxy cyclophosphamide]
[7]
  Sensitivity to activated cyclophosphamide: inherently sensitive
[8]
  Sensitivity to activated cyclophosphamide: inherently sensitive
